Assay results from patent US20150224085A1, “METHOD OF ADMINISTERING A 5,5-FUSED HETEROARYLENE HEPATITIS C VIRUS INHIBITOR FOR TREATING OF PREVENTING HEPATITIS C VIRUS INFECTION” (priority 2012, published 2015).

Legend:
[1] = 28-day toxicity study in mice
Procedure: (§1) Safety margins were calculated based upon proposed human doses in the first-in-human trial and human equivalent dose (HED) calculations derived from the two 28-day toxicology studies in mice and monkeys. This approach is consistent with the United States Food and Drug Administration Guidance for Industry entitled “Estimating the Maximum Safe Starting Dose in Initial Clinical Trials for Therapeutics in Adult Healthy Volunteers,” July 2005.

[2] = tested on: genotype 2 replicon with L31M substitution (NS5A M31); experiment: HCV replicon model, resistance; assay type: cell-based, hepatitis C virus
HCV Genotype 2 = experiment: Phase I/IIa Group D: HCV RNA reduction, 3-day dosing, Genotype 2; assay type: in vivo, hepatitis C virus; conditions: for Mean (Range) Maximal HCV RNA Reduction from Baseline: n = 4
Procedure: (§2) The phase I/IIa study was designed to evaluate safety and tolerability, pharmacokinetics (PK), food effect, and antiviral activity with regard to the Compound. The key safety parameters that were evaluated in the trial include adverse events (AEs), physical examination, vital signs, 12-lead electrocardiogram (ECG), and standard safety laboratory tests. The key antiviral activity parameters that were evaluated in the trial include changes in plasma HCV RNA and emergence of resistance mutations. The key pharmacokinetic parameters that were evaluated in the trial include plasma and urine concentrations of the Compound.
(§3) In the phase I/IIa study, plasma HCV RNA was quantitated using a validated commercial assay (COBAS® TAQMAN®) with a lower limit of quantitation of 25 IU/mL. HCV RNA genotyping was performed at Baseline using the Versant HCV Genotype Assay (LiPA) 2.0.
(§4) In Group D, the Compound was evaluated in an randomized, double-blind, placebo-controlled, parallel dosing study in 30 treatment-naive, genotypes 2, 3, and 4 HCV-infected subjects.
(§5) For all cohorts, dosing was under fasted in this study.

HCV Genotype 1a [3] = experiment: Phase I/IIa Group B: plasma HCV RNA reduction after single dose, Genotype 1a; assay type: in vivo, hepatitis C virus; conditions: for Maximum Viral Load Reduction after Single Dose: 1 subject; for Mean maximum viral load reduction after Single Dose: 2 subjects
Procedure: as §2, §3
(§6) In Group B, the Compound was evaluated in an open-label, single day study in 18 subjects with chronic HCV Genotype 1, 2, or 3 infection. […] For all cohorts, dosing was under fasted in this study.

HCV Genotype 3 [4] = experiment: Phase I/IIa Group D: HCV RNA reduction, 3-day dosing, Genotype 3; assay type: in vivo, hepatitis C virus; conditions: n = 4
Procedure: as §2, §3, §4, §5

HCV Genotype 3 [5] = experiment: Phase I/IIa Group B: plasma HCV RNA reduction after single dose, Genotype 3; assay type: in vivo, hepatitis C virus; conditions: 1 subject
Procedure: as §2, §3, §6

HCV Genotype 1a [6] = experiment: Phase I/IIa Group C: HCV RNA reduction, 3-day dosing, Genotype 1a; assay type: in vivo, hepatitis C virus
Procedure: as §2, §3
(§7) In Group C, the Compound was evaluated in a randomized, double-blind, placebo-controlled, parallel dosing study in 34 treatment-naive, genotype 1 HCV-infected subjects.
as §5

HCV Genotype 1b [7] = experiment: Phase I/IIa Group C: HCV RNA reduction, 3-day dosing, Genotype 1b; assay type: in vivo, hepatitis C virus
Procedure: as §2, §3, §7, §5

[8] = 28-day toxicity study in cynomolgus monkeys
Procedure: as §1

HCV Genotype 1b [9] = experiment: Phase I/IIa Group B: plasma HCV RNA reduction after single dose, Genotype 1b; assay type: in vivo, hepatitis C virus; conditions: 1 subject
Procedure: as §2, §3, §6

HCV Genotype 1, 2, and 3 = experiment: Phase I/IIa Group B: antiviral activity of single dose across genotypes; assay type: in vivo, hepatitis C virus; conditions: Genotype 1, 2, and 3 HCV-infected subjects
Procedure: as §2, §3, §6

[10] = tested on: HCV Genotypes 1, 2, 3, and 4; experiment: Phase I/IIa Groups C and D: antiviral activity across genotypes; assay type: in vivo, hepatitis C virus
Procedure: as §2, §3, §7, §4, §5

[11] = 28 days, doses up to 250 mg/kg/day
[12] = proposed human dose 1 mg/subject/day (0.02 mg/kg/day)
[13] = proposed human dose 5 mg/subject/day (0.08 mg/kg/day)
[14] = proposed human dose 10 mg/subject/day (0.17 mg/kg/day)
[15] = proposed human dose 25 mg/subject/day (0.42 mg/kg/day)
[16] = proposed human dose 50 mg/subject/day (0.83 mg/kg/day)

SMILES: COC(=O)N[C@H](C(=O)N1CCC[C@H]1c1nc2cc(-c3csc4c(-c5ccc(-c6cnc([C@@H]7CCCN7C(=O)[C@H](NC(=O)OC)c7ccccc7)[nH]6)cc5)csc34)ccc2[nH]1)C(C)C [the Compound, [(S)-1-((S)-2-{6-[6-(4-{(S)-2-[1-((R)-2-methoxycarbonylamino-2-phenyl-acetyl)-pyrrolidin-2-yl]-3H-imidazol-4-yl}-phenyl)-thieno[3,2-b]thiophen-3-yl]-1H-benzoimidazol-2-yl}-pyrrolidine-1-carbonyl)-2-methyl-propyl]-carbamic acid methyl ester]
- no observable effect level (NOEL) ([1]; 28-day mouse study): 150 mg/kg/day
- toxicological target [1, 11]: did not define any toxicological target
- NOAEL at 28 days ([1]; both, mouse, in vivo): 250 mg/kg/day
- liver histology ([1]; males and females, 250 mg/kg/day): minimal to mild diffuse hypertrophy of centrilobular hepatocytes
- increase in plasma levels with dose ([1]; mouse, in vivo, 150 mg/kg/day): little or no increase
- Mean ALT values at Day 29 ([1]; mouse, in vivo, 250 mg/kg/day): 88.4 U/L
- Margin of Safety, Mouse [1, 12]: 610 fold
- Margin of Safety, Mouse [1, 13]: 153 fold
- Margin of Safety, Mouse [1, 14]: 72 fold
- Margin of Safety, Mouse [1, 15]: 29 fold
- Margin of Safety, Mouse [1, 16]: 15 fold
- resistance conferred by L31M substitution (NS5A M31 polymorphism) [2]: 75 fold
- Mean (Range) Maximal HCV RNA Reduction from Baseline (HCV Genotype 2; 50 mg BID x 3 days): 2.0 (0.5-4.0) log10 IU/mL
- Mean (Range) Maximal HCV RNA Reduction from Baseline (HCV Genotype 2; 100 mg QD x 3 days): 2.0 (0.3-4.1) log10 IU/mL
- Mean Max Viral Load Response (HCV Genotype 2; subjects with L31 at BL, L31M at Day 4, 2 subjects): −2.83 log10 IU/mL
- Mean Max Viral Load Response (HCV Genotype 2; subjects with L31 at BL, low VL at Day 4 (<1,000 IU/mL), 2 subjects): −4.06 log10 IU/mL
- Mean Max Viral Load Response (HCV Genotype 2; subjects with M31 at BL, 3 subjects): −0.45 log10 IU/mL
- mean maximal viral load reduction (HCV Genotype 2; total daily dose of 100 mg for 3 days): 2.0 log10 IU/mL
- Maximum Viral Load Reduction after Single Dose (HCV Genotype 1a [3]; 1 mg single dose): 0.8^2 log10 IU/mL
- Mean maximum viral load reduction after Single Dose (HCV Genotype 1a [3]; 5 mg single dose): 2.6^1 log10 IU/mL
- Maximum Viral Load Reduction after Single Dose (HCV Genotype 1a [3]; 10 mg single dose): 2.9^2 log10 IU/mL
- Mean maximum viral load reduction after Single Dose (HCV Genotype 1a [3]; 25 mg single dose): 3.7^1 log10 IU/mL
- Maximum Viral Load Reduction after Single Dose (HCV Genotype 1a [3]; 50 mg single dose): 2.5^2 log10 IU/mL
- Maximum Viral Load Reduction after Single Dose (HCV Genotype 1a [3]; 100 mg single dose): 3.3^2 log10 IU/mL
- Mean (Range) Maximal HCV RNA Reduction from Baseline (HCV Genotype 3 [4]; 50 mg BID x 3 days): 3.3 (2.5-4.6) log10 IU/mL
- Mean (Range) Maximal HCV RNA Reduction from Baseline (HCV Genotype 3 [4]; 100 mg QD x 3 days): 3.4 (3.1-3.8) log10 IU/mL
- Maximum Viral Load Reduction after Single Dose (HCV Genotype 3 [5]; 25 mg single dose): 2.2 log10 IU/mL
- Maximum Viral Load Reduction after Single Dose (HCV Genotype 3 [5]; 50 mg single dose): 3.7 log10 IU/mL
- Maximum Viral Load Reduction after Single Dose (HCV Genotype 3 [5]; 100 mg single dose): 3.3 log10 IU/mL
- Mean (Range) Maximal HCV RNA Reduction from Baseline (HCV Genotype 1a [6]; 25 mg QD x 3 days, n = 5): 3.3 (2.9-3.7) log10 IU/mL
- Mean (Range) Maximal HCV RNA Reduction from Baseline (HCV Genotype 1a [6]; 50 mg BID x 3 days, n = 6): 3.2 (2.7-3.8) log10 IU/mL
- Mean (Range) Maximal HCV RNA Reduction from Baseline (HCV Genotype 1a [6]; 50 mg QD x 3 days, n = 6): 3.6 (3.3-3.9) log10 IU/mL
- Mean (Range) Maximal HCV RNA Reduction from Baseline (HCV Genotype 1a [6]; 100 mg QD x 3 days, n = 6): 3.5 (2.6-4.3) log10 IU/mL
- Mean (Range) Maximal HCV RNA Reduction from Baseline (HCV Genotype 1b [7]; 25 mg QD x 3 days, n = 3): 3.0 (2.0-4.2) log10 IU/mL
- Mean (Range) Maximal HCV RNA Reduction from Baseline (HCV Genotype 1b [7]; 50 mg QD x 3 days, n = 2): 4.3 (4.1-4.5) log10 IU/mL
- no observable effect level (NOEL) ([8]; 28-day monkey study): 250 mg/kg/day
- toxicological target [8, 11]: did not define any toxicological target
- increase in plasma levels with dose ([8]; cynomolgus monkey, in vivo): little or no increase
- Margin of Safety, Monkey [8, 12]: 807 fold
- Margin of Safety, Monkey [8, 13]: 204 fold
- Margin of Safety, Monkey [8, 14]: 95 fold
- Margin of Safety, Monkey [8, 15]: 38 fold
- Margin of Safety, Monkey [8, 16]: 19 fold
- Maximum Viral Load Reduction after Single Dose (HCV Genotype 1b [9]; 1 mg single dose): 3.1^2 log10 IU/mL
- Maximum Viral Load Reduction after Single Dose (HCV Genotype 1b [9]; 10 mg single dose): 3.7^2 log10 IU/mL
- Maximum Viral Load Reduction after Single Dose (HCV Genotype 1b [9]; 50 mg single dose): 3.2^2 log10 IU/mL
- Maximum Viral Load Reduction after Single Dose (HCV Genotype 1b [9]; 100 mg single dose): 3.7^2 log10 IU/mL
- antiviral activity (HCV Genotype 1, 2, and 3): potent pan-genotypic antiviral activity
- antiviral activity ([10]; Genotype 1, 2, 3, and 4 HCV-infected subjects): potent, pan-genotypic antiviral activity
- rebound (>1.0 log10 IU/mL increase over nadir) ([10]; during the 3 days of dosing): No subject experienced a rebound
- mean maximal HCV RNA reductions ([10]; total dose of 100 mg/day for 3 days, Genotypes 1, 3, and 4): approximately 3.5 log10 IU/mL
